Reference: PubChem BioAssay AID1259407 (Chemical Carcinogenesis Research Information System (CCRIS), 2018)
The source made the active and inactive calls. No rule for the calls is given here.

Test system: CCRIS mutagenicity, Ames/micronucleus/aberration tests
Assay: CCRIS mutagenicity studies
[1] = Test System: AMES SALMONELLA TYPHIMURIUM, Strain/Indicator: TA98, Metabolic Activation: NONE, Method: STANDARD PLATE
[2] = Test System: AMES SALMONELLA TYPHIMURIUM, Strain/Indicator: TA100, Metabolic Activation: NONE, Method: STANDARD PLATE
[3] = Test System: AMES SALMONELLA TYPHIMURIUM, Strain/Indicator: TA100, Metabolic Activation: RAT, LIVER, S-9, AROCLOR 1254, Method: STANDARD PLATE

Compound: O=CN(O)c1cccc(Cl)c1
- mutagenic call [1]: inactive; negative
- mutagenic call (Test System: AMES SALMONELLA TYPHIMURIUM, Strain/Indicator: TA98, Metabolic Activation: RAT, LIVER, S-9, AROCLOR 1254, Method: STANDARD PLATE): inactive; negative
- mutagenic call [2]: inactive; negative
- mutagenic call [3]: inactive; negative

Compound: Oc1cc(Cl)c(Cl)c(Cl)c1O
- mutagenic call (Test System: CHINESE HAMSTER V-79, Strain/Indicator: V-79/6-THIOGUANINE, Metabolic Activation: NONE, Method: STANDARD PLATE): inactive; negative

Compound: O=C1OC(O)C(C(Cl)Cl)=C1Cl (configuration not stated)
- mutagenic call (Test System: AMES SALMONELLA TYPHIMURIUM, Strain/Indicator: RSJ100, Metabolic Activation: NONE, Method: PREINCUBATION): inactive; negative
- mutagenic call (Test System: AMES SALMONELLA TYPHIMURIUM, Strain/Indicator: RSJ100, Metabolic Activation: RAT LIVER S-9, Method: PREINCUBATION): inactive; negative
- mutagenic call (Test System: AMES SALMONELLA TYPHIMURIUM, Strain/Indicator: TA92, Metabolic Activation: NONE, Method: STANDARD PLATE): active; positive
- mutagenic call (Test System: AMES SALMONELLA TYPHIMURIUM, Strain/Indicator: TA97, Metabolic Activation: NONE, Method: STANDARD PLATE): active; positive
- mutagenic call (Test System: AMES SALMONELLA TYPHIMURIUM, Strain/Indicator: TA98, Metabolic Activation: NONE, Method: PREINCUBATION): active; positive
- mutagenic call [1]: active; positive
- mutagenic call (Test System: AMES SALMONELLA TYPHIMURIUM, Strain/Indicator: TA98, Metabolic Activation: RAT LIVER S-9, AROCLOR 1254, Method: STANDARD PLATE): inactive; negative
- mutagenic call (Test System: AMES SALMONELLA TYPHIMURIUM, Strain/Indicator: TA98, Metabolic Activation: RAT LIVER S-9, Method: PREINCUBATION): active; positive
- mutagenic call (Test System: AMES SALMONELLA TYPHIMURIUM, Strain/Indicator: TA98, Metabolic Activation: RAT, LIVER, S-9, PHENOBARBITAL AND 5,6-BENZOFLAVONE, Method: PREINCUBATION): inactive; negative
- mutagenic call (Test System: AMES SALMONELLA TYPHIMURIUM, Strain/Indicator: TA100, Metabolic Activation: NONE, Method: PREINCUBATION): active; positive
- mutagenic call (Test System: AMES SALMONELLA TYPHIMURIUM, Strain/Indicator: TA100, Metabolic Activation: RAT LIVER S-9, AROCLOR 1254, Method: STANDARD PLATE): inactive; negative
- mutagenic call (Test System: AMES SALMONELLA TYPHIMURIUM, Strain/Indicator: TA100, Metabolic Activation: RAT LIVER S-9, Method: PREINCUBATION): inactive; negative
- mutagenic call [3]: active; positive
- mutagenic call (Test System: AMES SALMONELLA TYPHIMURIUM, Strain/Indicator: TA100, Metabolic Activation: RAT, LIVER, S-9, PHENOBARBITAL AND 5,6-BENZOFLAVONE, Method: PREINCUBATION): inactive; negative
- mutagenic call (Test System: AMES SALMONELLA TYPHIMURIUM, Strain/Indicator: TA102, Metabolic Activation: NONE, Method: STANDARD PLATE): active; positive
- mutagenic call (Test System: AMES SALMONELLA TYPHIMURIUM, Strain/Indicator: TA1535, Metabolic Activation: NONE, Method: STANDARD PLATE): active; positive
- mutagenic call (Test System: AMES SALMONELLA TYPHIMURIUM, Strain/Indicator: TA1538, Metabolic Activation: NONE, Method: STANDARD PLATE): active; positive
- mutagenic call (Test System: AMES SALMONELLA TYPHIMURIUM, Strain/Indicator: YG7112, Metabolic Activation: NONE, Method: PREINCUBATION): active; positive
- mutagenic call (Test System: AMES SALMONELLA TYPHIMURIUM, Strain/Indicator: YG7113, Metabolic Activation: NONE, Method: PREINCUBATION): active; positive
- mutagenic call (Test System: AMES SALMONELLA TYPHIMURIUM, Strain/Indicator: YG7119, Metabolic Activation: NONE, Method: PREINCUBATION): active; positive
- mutagenic call (Test System: Ames Salmonella typhimurium, Strain/Indicator: TA100, Metabolic Activation: None, Method: Preincubation): active; positive
- mutagenic call (Test System: Ames Salmonella typhimurium, Strain/Indicator: TA104, Metabolic Activation: None, Method: Plate incorporation): active; positive
- mutagenic call (Test System: Ames Salmonella typhimurium, Strain/Indicator: TA1975P, Metabolic Activation: None, Method: Preincubation): active; positive (at higher doses)
- mutagenic call (Test System: CHINESE HAMSTER OVARY, Strain/Indicator: CHO-KTL3 (HPRT)/6-THIOGUANINE, Metabolic Activation: NONE): active; positive
- mutagenic call (Test System: CHINESE HAMSTER V-79, Strain/Indicator: V-79 (HGPRT), Metabolic Activation: NONE): inactive; negative
- mutagenic call (Test System: E. COLI, Strain/Indicator: CL101P, Metabolic Activation: NONE, Method: PREINCUBATION): active; positive
- mutagenic call (Test System: E. COLI, Strain/Indicator: CL102P, Metabolic Activation: NONE, Method: PREINCUBATION): active; positive
- mutagenic call (Test System: E. COLI, Strain/Indicator: CL103P, Metabolic Activation: NONE, Method: PREINCUBATION): active; positive
- mutagenic call (Test System: E. COLI, Strain/Indicator: CL104P, Metabolic Activation: NONE, Method: PREINCUBATION): active; positive
- mutagenic call (Test System: E. COLI, Strain/Indicator: CL105P, Metabolic Activation: NONE, Method: PREINCUBATION): active; positive
- mutagenic call (Test System: E. COLI, Strain/Indicator: CL106P, Metabolic Activation: NONE, Method: PREINCUBATION): inactive; negative
- mutagenic call (Test System: E. COLI, Strain/Indicator: WP2, Metabolic Activation: NONE, Method: PREINCUBATION): inactive; negative
- mutagenic call (Test System: E. COLI, Strain/Indicator: WP2 UVRA, Metabolic Activation: NONE, Method: PREINCUBATION): active; positive
- mutagenic call (Test System: E. coli, Strain/Indicator: XL-1 Blue MRA P2 (Spi), Method: Standard plate): inactive; negative
- mutagenic call (Test System: E. coli, Strain/Indicator: YG6020 (Gpt)/6-Thioguanine, Method: Standard plate): inactive; negative
- mutagenic call (Test System: HUMAN H1A1V2 CELLS, Strain/Indicator: TK LOCUS, Metabolic Activation: NONE, Method: SUSPENSION/PLATE): active; positive
- mutagenic call (Test System: HUMAN LYMPHOBLASTOID CELLS, Strain/Indicator: AHH-1 CELLS (TK+/TK-), Metabolic Activation: NONE, Method: SUSPENSION/PLATE): active; positive
- mutagenic call (Test System: HUMAN LYMPHOBLASTOID CELLS, Strain/Indicator: MCL-5 CELLS (TK+/TK-), Metabolic Activation: NONE, Method: SUSPENSION/PLATE): active; positive
- mutagenic call (Test System: MOUSE LYMPHOMA, Strain/Indicator: L5178Y (TK+/TK-), Metabolic Activation: NONE, Method: SUSPENSION/PLATE): active; positive
- mutagenic call (Test System: UDS HUMAN HEPATOCYTES, Strain/Indicator: THY INCORP, Metabolic Activation: NONE, Method: AUTORADIOGRAPHY): active; positive
- mutagenic call (Test System: UDS MOUSE HEPATOCYTES, Strain/Indicator: THY INCORP, Metabolic Activation: IN VIVO, Method: AUTORADIOGRAPHY): inactive; negative
- mutagenic call (Test System: UDS MOUSE HEPATOCYTES, Strain/Indicator: THY INCORP, Metabolic Activation: NONE, Method: AUTORADIOGRAPHY): active; positive
- mutagenic call (Test System: UDS RAT HEPATOCYTES, Strain/Indicator: THY INCORP, Metabolic Activation: NONE, Method: AUTORADIOGRAPHY): active; positive
- mutagenic call (Test System: UDS RAT HEPATOCYTES, Strain/Indicator: THYMIDINE INCORPORATION, Metabolic Activation: NONE, Method: AUTORADIOGRAPHY): active; positive

Compound: CNC(=O)ON
- mutagenic call [1]: active; positive
- mutagenic call (Test System: AMES SALMONELLA TYPHIMURIUM, Strain/Indicator: TA98, Metabolic Activation: RAT, LIVER, S-9, Method: STANDARD PLATE): active; positive
- mutagenic call [2]: active; positive

Compound: N1=NC2[C@@H]3O[C@@H]3C1[C@H]1O[C@@H]21
- mutagenic call [1]: inactive; negative
- mutagenic call (Test System: AMES SALMONELLA TYPHIMURIUM, Strain/Indicator: TA98, Metabolic Activation: RAT, LIVER, S-9, PHENOBARBITAL, Method: STANDARD PLATE): inactive; negative
- mutagenic call [2]: inactive; negative
- mutagenic call (Test System: AMES SALMONELLA TYPHIMURIUM, Strain/Indicator: TA100, Metabolic Activation: RAT, LIVER, S-9, PHENOBARBITAL, Method: STANDARD PLATE): inactive; negative
- mutagenic call (Test System: AMES SALMONELLA TYPHIMURIUM, Strain/Indicator: TM677/8-AZAGUANINE, Metabolic Activation: NONE, Method: STANDARD PLATE): inactive; negative
